Read-outs that look alike come from different tables or passages of the source. No end group written: not given here.
Key:
[1] = tested on: Human vascular endothelial cells (HUVECs); experiment: Toxicity to human vascular endothelial cells (MTT); assay type: cell-based; settings: 0 μg/ml to 300 μg/ml; FIG. 5
Protocol: PBS was used as a control.
The HUMEC medium was replaced with fresh medium, and KU-5878, melittin or magainin 2 were dispensed at various concentrations (0 μg/ml to 300 μg/ml). Then, each well was treated with 100 μl of MTT reagent and incubated at 37° C. for 2 hours. Then, the medium and the peptide were carefully removed so as not to separate the cells, and 100 μl of DMSO (dimethyl sulfoxide) was added to each well, and the absorbance at a wavelength of 570 nm was measured using a spectrophotometer. Relative cell viability was calculated as a percentage of the viability of untreated control cells.

[2] = tested on: methicillin-resistant Staphylococcus aureus (ATCC 33591); settings: for MBC MRSA: Tables 11-15, no unit printed
[3] = tested on: Staphylococcus aureus, Pseudomonas aeruginosa, Klebsiella pneumoniae and Acinetobacter baumannii; experiment: Survival rate of mice injected with gram-positive or gram-negative bacteria; assay type: in vivo, mice (C57BL/6); settings: FIG. 3, bacteria only 0 to 20%
Description: Following Example 2-2, in order to evaluate the antibacterial activity of KU-5878 peptide in vivo, Staphylococcus aureus as gram-positive bacteria, Pseudomonas aeruginosa, Klebsiella pneumoniae and Acinetobacter baumannii as gram-negative bacteria, and multidrug-resistant Pseudomonas aeruginosa, methicillin-resistant Staphylococcus aureus, multidrug-resistant Klebsiella pneumoniae and multidrug-resistant Acinetobacter baumannii as multidrug-resistant bacteria were selected, and the following experiment was performed.
The experimental method is as described in Example 2-2 above. For a positive group, each type of the bacteria was injected into mice, and after 24 hours, 30 mg/kg of imipenem, a carbapenem-based antibiotic, was injected intraperitoneally (IP), and then the same amount of imipenem was administered intraperitoneally a total of 4 times at 12-hour intervals. The survival rates of each control group and the experimental group were measured at 24-hour intervals.

[4] = tested on: multidrug-resistant Pseudomonas aeruginosa; settings: 4 h
Protocol: First, each of Pseudomonas aeruginosa (ATCC 27853) and Staphylococcus aureus (ATCC 29213) was cultured in 3% (w/v) TSB (Tryptic Soy Broth) liquid medium at 37° C. and 200 rpm for 4 hours, and then further cultured under the same conditions for 3 hours to a concentration of 5×10^6 CFU/ml. Strain solutions were prepared by diluting each of the further cultured strains with SP (sodium phosphate; 10 mM sodium phosphate, 1% TSB) buffer to a final concentration of 2×10^5 CFU/ml.
(§1) Then, each peptide at varying concentrations (0 μg/ml to 300 μg/ml) was dispensed into each well of a 96-well microplate, and 100 μl (1×10^5 CFU/ml) of each of the prepared strain solutions was added thereto, mixed therewith, and allowed to react with the peptide in an incubator at 37° C. for 1 hour.
In addition, 30 g/L of TS (tryptic soy) and 15 g/L of agar were dissolved in distilled water and sterilized, and then 25 ml of the solution was poured onto a 100 mm round plate and solidified at room temperature for one day or more, thereby preparing a TS agar plate. 10 μl of each reaction solution of the peptide and the strain was plated on the TS agar plate at a constant size, and incubated in an incubator at 37° C. for 18 hours, and then colony formation on the plate was checked.
Specifically, each type of bacteria was cultured in 3% (w/v) TSB (Tryptic Soy Broth) liquid medium at 37° C. and 200 rpm for 4 hours, and then further cultured under the same conditions for 3 hours to a concentration of 5×10^6 CFU/ml. Strain solutions were prepared by diluting each of the […] of 2×10^5 CFU/ml.
as §1, with “Then, the KU-5878” for “Then, each”
In addition, 10 μl of each reaction solution of the peptide and the strain was plated on the TS agar plate at a constant size, and incubated in an incubator at 37° C. for 18 hours, and then colony formation on the plate was checked.
Meanwhile, the multidrug-resistant Pseudomonas aeruginosa, multidrug-resistant Acinetobacter and multidrug-resistant Klebsiella in Table 2 below were bacteria isolated from patients at Korea University Anam Hospital. […] Then, these bacteria were used in the experiment.

CRPA = experiment: MBC, evaluation of antibacterial activities of KU-5878 variants; assay type: cell-based; settings: Tables 11-15, no unit printed
mouse red blood cells = assay type: cell-based
Protocol: Red blood cells were diluted with PBS, centrifuged 3 times at 900 g for 10 minutes, and washed. 100 μl of the diluted red blood cell solution (10% v/v PBS) was dispensed into each well of a 96-well microplate, and KU-5878, KU-5878-K4, KU-5878-K4-D, melittin, magainin 2 or daptomycin was added to each well which was then filled with PBS to 200 μl, followed by reaction by incubation at 37° C. for 1 hour. Then, the supernatant of the reaction solution was separated, and the absorbance at a wavelength of 550 nm was measured using a spectrophotometer. As control, PBS and 0.1% Triton X-100 (Triton X-100) solution were used.
Based on the results of measurement of the absorbance, the degree of red blood cell destruction was calculated according to Equation 1 below, and the results of the calculation are shown in FIG. 6. The % intact RBC=100(%)−[(absorbance of peptide-treated red blood cell solution−absorbance of PBS-treated red blood cell solution)/(absorbance of Triton X-100-treated red blood cell solution−absorbance of PBS-treated red blood cell solution)×100(%)] [Equation 1]

KTMMQSGGTFGTFMAIGMGIR [KU-5878]
toxicity to the HUVECs (relative cell viability, MTT) [1]: very low toxicity | MBC value (μg/ml) against methicillin-resistant Staphylococcus aureus ([2]; ATCC 33591, 4 h): 100 µg/mL | MBC MRSA [2]: 110 µg/mL | MBC MRSA ([2]; listed as 5878): 100 µg/mL | survival rate of the mice [3]: 60% | MBC value (μg/ml) against multidrug-resistant Pseudomonas aeruginosa [4]: 110 µg/mL | MBC CRPA (CRPA): 110 µg/mL | hemolysis of red blood cells (mouse red blood cells): little hemolysis even at a high concentration

From patent US12053506B2, “Romo1-derived antimicrobial peptides and variants thereof” (priority 2019, dated 2024)
